{
  "source": "patent US11484032B2",
  "about": "“Compositions for inhibition of insect sensing” (Vanderbilt University, priority 2011, dated 2022)",
  "key": {"[1]": {"system": "HvOR2", "test": "Whole-cell patch clamp, HEK cells transiently expressing HvOR2", "format": "cell-based, Heliothis virescens", "settings": "HvOR2 transiently transfected HEK cells", "source_text": "For transient transfections, ORs were cloned into pCl (Promega) and transfected into Flp-In™ T-REx™293 cell lines (Invitrogen) with Fu GENE6 (Roche). For the creation of stable cell lines, a cell culture expression vector capable of expressing Orco in conjunction with a conventional OR, pcDNA5/FRT/TO (Invitrogen) was modified to create two individual expression cassettes each under the control of a separate CMV/Tet02 promoter and a BGH poly-adenylation signal. Cells (as above) were transfected with the modified pcDNA5 plasmid along with POG44 (a Flp recombinase expression plasmid) to facilitate site-specific recombination. Stable cell lines were selected using Hygromycin B (Invitrogen). Cells were maintained in DMEM (Invitrogen) supplemented with 10% Tetracycline-free FBS (HyClone) and 15 ng/ml Blasticidin. […] Baseline readings were taken for 20 s before automated addition of compound previously diluted in DMSO and assay buffer. […]\nCurrents from OR-expressing HEK293 cells were amplified with an Axopatch 200b Amplifier (Axon Instruments) and digitized through a Digidata 1322A (Axon Instruments). Electrophysiological data was recorded and analyzed using pCLAMP 10 (Axon Instruments). […]"}, "[2]": {"system": "An. gambiae early 4th instar larvae", "test": "Larval mosquito movement assay (Daniovision-Ethovision)", "format": "in vivo, Anopheles gambiae", "experimental": "Next, the agonist activity of the VUAA compound class was tested to establish the involvement of AgORs in mediating larval ortho and klinokinesis in response to a series of semiochemicals using larval-stage An. gambiae mosquitoes. Mosquito larvae are aquatic, thus compounds can be delivered to individual early 4th instar larvae regardless of volatility. The assay currently utilizes 6-well plates and the Daniovision-Ethovision platform (Noldus Inc.) to simultaneously record and analyze 6 larvae, thereby providing modest rates of throughput and a high degree of reproducibility. In these assays, larval movements are automatically quantified over 5-minute period and control larvae consistently move the same number of times in the presence or absence of 0.1% DMSO (p=0.80, n=31) (FIGS. 42-43). Furthermore, the effects of the widely-used synthetic insect repellent N, N-diethyl-meta-toluamide (DEET) was tested and DEET was also observed to increase larval movements at and above a threshold concentration of 5×10^−4M (p=0.013, n=27) (FIGS. 42-43)."}, "[3]": {"system": "CO2 sensitive CpA neuron (does not express AgORco)", "test": "Single sensillum recording, capitate peg sensilla, CpA neuron", "format": "in vivo, Anopheles gambiae", "settings": "CO2 pulse at completion of assay", "experimental": "Single sensillum recordings were performed on 4-7 day old, non-bloodfed Anopheles gambiae females maintained on 10% sucrose and a 12/12 light dark cycle. Legs, wings and antennae were removed from cold-anesthetized females that were then restrained on double-stick tape with thread. A glass reference electrode filled with Sensillar lymph ringers (SLR)(Xu, 2005) was placed in the eye and the recording electrode filled with DMSO or VUAA1 diluted in SLR was used to puncture sensilla at their base. Responses were recorded and digitized using a Syntech IDAC-4 and analyzed with AutoSpike software (Syntech). New glass recording pipettes were used for every recording. Data was sampled at 12 kHz.\nThe inventors next performed single unit, extracellular electrophysiological recordings on adult female An. gambiae to determine whether VUAA1 could activate AgORco-expressing odorant receptor neurons (ORNs) in vivo. ORNs, which express AgORco and a conventional OR are enclosed within the hair-like sensilla present on olfactory tissues. […] CpA is clearly distinguished from CpB/C by its large action potential amplitude. The action potential amplitudes of CpB and CpC are much smaller and in some preparations indistinguishable from each other; as a result, the spike activity of CpB and CpC neurons were binned for data analysis. […]"}},
  "data": [
    {"smiles": "CCc1ccc(NC(=O)CSc2nnc(-c3cccnc3)n2CC)cc1", "note": "[VUAA1, 2-((4-ethyl-5-(pyridin-3-yl)-4H-1,2,4-triazol-3-yl)thio)-N-(4-ethylphenyl)acetamide]", "values": [
      {"measurement": "whole-cell current response", "setting": "[1]", "result": "robust inward currents"},
      {"measurement": "larval movements at higher concentration", "setting": "[2]; 5×10^−5M", "result": "larval movements were observed to decrease"},
      {"measurement": "larval response in AgOrco siRNA-treated larvae", "setting": "[2]; AgOrco siRNAs injected 48 h before, vs buffer-injected control", "result": "no longer responsive"},
      {"measurement": "increase over the response threshold of DEET", "setting": "[2]; in vivo", "result": "5 orders of magnitude"},
      {"measurement": "threshold concentration for increased larval movement", "setting": "[2]; movements over 5-minute period", "result": 5, "unit": "nM"},
      {"measurement": "CpA neuron activity", "setting": "[3]", "result": "unchanged"}
    ]}
  ]
}
